From article PMC8437281 (PLoS ONE, 2021)
“And” between values parts separate entries of the source, which are not always exact repeats. Equal values may be shown once. Read-outs that look alike come from different tables or passages of the source. Where no end group is shown, it is not given here.

Legend:
C. difficile 630 [1] = assay: microbe, parasite or virus in culture; conditions: Clostridioides difficile, 630, 24 h
C. difficile 630 [2] = conditions: lowest concentration killing ≥99.9%, after 24 h incubation plated on BHI agar, 37°C, anaerobic, triplicate
C. difficile 630 [3] = conditions: C. difficile 630, BHI broth, 24 h, 37°C, anaerobic, OD 600 nm; triplicate

CN[C@H](CC(C)C)C(=O)N[C@H]1C(=O)N[C@@H](CC(N)=O)C(=O)N[C@H]2C(=O)N[C@H]3C(=O)N[C@H](C(=O)N[C@H](C(=O)O)c4cc(O)cc(O)c4-c4cc3ccc4O)[C@H](O)c3ccc(c(Cl)c3)Oc3cc2cc(c3O[C@@H]2O[C@H](CO)[C@@H](O)[C@H](O)[C@H]2O[C@H]2C[C@](C)(N)[C@H](O)[C@H](C)O2)Oc2ccc(cc2Cl)[C@H]1O [Vancomycin]
MIC (C. difficile 630 [1]): 0.488 µg/mL and 0.34 µM

KWKLFKKIGAVLKVL-NH2 [CM]
Minimum bactericidal concentration (MBC) (C. difficile 630 [2]): 2.21 µM
MIC (C. difficile 630 [3]): 2.21 µM

KWKLFKKIGAVLKVLA-NH2 [CM-A]
Reduction of viability of Caco-2 cells (Caco-2 cells; Caco-2): 11%
Viability of Caco-2 cells (Caco-2 cells; Caco-2, 33.94 µM): 40%
Minimum bactericidal concentration (MBC) (C. difficile 630 [2]): 4.24 µM
MIC (C. difficile 630 [3]): 1.06 µM
